This is an account of results in patent publication US6605604B1, “Carboxylic and hydroxamic acid compounds inhibiting metalloproteases, method for preparing same and pharmaceutical compositions containing them” (Les Laboratoires Servier, priority 1998, dated 2003).

Test [1] concerns ovarian cancers. Particulars: Becket et al., DDT 1996, 1, 16; cited from earlier work.
Test [2] concerns rabbit cartilage collagen matrix degradation induced by IL-1β. The settings on record: read-out: IC50, collagen degradation (OH-proline release), IL-1β 10 ng/ml and plasmin 0.1 U/ml, 2 days. The procedure:
The compounds of the invention were studied using a rabbit cartilage collagen matrix degradation model with degradation being induced by IL-1β. The tissue is placed in contact with IL -1β (10 ng/ml) and plasmin (0.1 U/ml) for 2 days. The fraction of OH-proline salted out by the tissue is evaluated by colorimetric measurement (GRANT R. A. Estimation of OH-proline by the autoanalyzer, J. Clin. Path. 1964, 17 685). The compounds of the invention were studied after the addition of various concentrations to the culture medium during the two days of the test.

Test [3] relates to B16F10 melanoma. The settings on record: BDF1 mice, B16F10 cells i.v. on day 1; compound i.v. at 100 mg/kg from day 0 to day 3; metastases counted on day 11. The protocol:
Inhibition of the Formation of Metastases in the Mouse
The anti-tumour activity of the compounds of the invention was studied in the model of B16F10 melanoma grafted by the i.v. route. […] The parameter measured is thus the number of pulmonary metastases.
B16F1O tumour cells are injected by the i.v. route into BDF1 mice on day 1 (1 10^5 cells per mouse). The compounds are administered by the i.v. route at 100 mg/kg from day 0 to day 3 (7 animals per experimental group). On day 11, the animals are sacrificed and the pulmonary metastases are counted. The results are expressed as % inhibition compared with the control animals.

As to `CNC(=O)[C@H](Cc1ccccc1)NC(=O)[C@H](CC(C)C)[C@H](CSc1cccs1)C(=O)NO` [BB94], the “anti-tumour activity in clinical use” value in test [1] is listed as “active in ovarian cancers”. Take `O=C(NO)C(CCn1nnc2ccccc2c1=O)CSCCc1ccc(-c2ccc(Cl)cc2)cc1` (stereo not shown) [Example 93, 2-{[2-(4′-Chloro-4-biphenyl)ethyl]sulphanylmethyl}-N-hydroxy-4-(4-oxo-3,4-dihydro-1,2,3-benzotriazin-3-yl)butyramide]: in test [2], the IC50 amounted to 1900 nM. The “inhibition of the formation of pulmonary metastases, % inhibition compared with the control animals” value in test [3] amounted to 75%. Regarding `O=C(O)[C@H]1[C@H](Cn2nnc3ccccc3c2=O)CC[C@@H]1Sc1ccc(-c2ccc(Cl)cc2)cc1` (mixture of isomers) [Example 49, (1R,2S,5R)- and (1S,2R,5S)-2-[(4′-chloro-4-biphenyl)sulphanyl]-5-[(4-oxo-3,4-dihydro-1,2,3-benzotriazin-3-yl)methyl]-1-cyclopentanecarboxylic acid], in test [3], the “inhibition of the formation of pulmonary metastases, % inhibition compared with the control animals” value turned out to be 73%.
